# Measurements: patent US11326131B2, “Cleaning composition” (AMITY LIMITED, priority 2008, dated 2022)
# Tested on: polio virus
# Format: cell-based
# Settings: tested on its own
smiles,measurement,value
"CCCCCCCCCCCCN(CCCN)CCCN [dodecyl dipropylene triamine, Dodecyl dipropylene triamine]",effect against the polio virus,no effect
